The values below come from patent US10323019B2, “Pyrazolylaminobenzimidazole derivatives as JAK inhibitors” (Eli Lilly and Company, priority 2016, dated 2019).

SMILES strings stand for the structures. Where two headings read alike, the source gives them in different places.

The target in assay [1] is JAK1 (Rattus norvegicus, UniProt G3V9W2). Nature of the assay: Rat PK/PD assay: rat whole blood ex vivo JAK1 activity (pSTAT3). Format: in vivo. The following applies: 30 mpk oral. On the procedure:
(§1) Male Wistar rats, 265-285 grams (Charles River) were used for oral gavage dosing. Dose the animals (Oral gavage) at 1.82 mL/kg (0.5 mL per 275 grams). Formulate the compounds in 1% HEC vehicle containing 0.25% Tween 80 and 0.05% antifoam with 1.1 molar equivalent of methanesulfonic acid to form an in situ salt. Formulate compounds once per week, and store at 4° C. At various time points, obtain rat whole blood via tail vain bleeding in Multivette 600 μl EDTA blood collection tubes (cat#151671100PK100, Sarstedt Inc) and use for ex vivo JAK1 and JAK2 assay. Aliquot 100 ul of blood from each rat into a 96-well round bottom plate. Stimulate whole blood by recombinant IL-6 ([…], and recombinant mouse GM-CSF (cat#415-ML, lot#, R&D) for 12 min at rt. After cytokine stimulation, add whole blood into Lyse/fix (cat#558049, lot#, BD) in minitube rack; mix well 5×. Incubate 10 min at rt. Spin minitube rack at 600 g for 4 min. Aspirate with 12-channel manifold. Transfer contents of minitube rack to 96 well round-bottom plates. Spin down the cells at 3000 rpm for 1 min and discard the supernatant. Mix the cells in the well with 100 ul ice-cold MeOH and incubated on ice for 30 min. Add 150 ul PBS+2% FCS into each well and spin down at 3000 rpm, 2 min. Wash cells with 2× of 250 ul PBS+2% FCS. For cell surface and intracellular staining, mix all antibodies and add into each well and incubate 1 hr at rt in dark. The antibodies used for staining are as following: pSTAT3, Alexa Fluor 647 (cat#4324s, lot, Cell Signaling); pSTAT5, Alexa Fluor 488 (cat#3939s, lot#, Cell Signaling), anti-rat CD4, V450 (cat#561579, lot#. BD); anti-rat CD11b, Percp eFluor710 (cat#12-0110-82, lot#, eBioscience) After staining cells with Abs, wash the plates twice with PBS+2% FCS and finally re-suspend in the same 150 ul of solution. Assess cell viability by Viability Dye 780 (cat#65-0865-14, lot#, eBioscience). Perform the cytometry assay using FORTESSA.

The target in assay [2] is JAK1 (Homo sapiens (Human), UniProt P23458). Nature of the assay: AlphaScreen SureFire p-STAT3-(p-Tyr705)-IL6-TF-1-JAK1 cell-based assay. The following applies: TF-1 cells, IL6 30 ng/mL, pSTAT3. On the procedure: AlphaScreen SureFire Protocol p-STAT3-(p-Tyr705)-IL6-TF-1-JAK1 Cell-Based Assay
The JAK1 cell based assay described below is used to determine the JAK1 cellular potency of test compounds.
Cell preparation: Starve TF-1 cells in DMEM medium with 0.5% […] and 1× Pen/Strep at 37° C. Plate 100K cells per well in BD 96 well black plates with clear bottoms. Maintain the plates at RT for 30-60 minutes before incubating overnight at 37° C., and 5% CO2. Count cells using Vi-Cell counter, using a cell suspension at […] and plated 100 μL/well in […] Biocoat plates (Catalog #354640).
Test compound preparation and treatment: Prepare compounds at 1:3 serial dilutions in DMSO and further dilute into the medium. Test compounds in a range of 10 point concentrations from 20,000 to 1 nM. Add diluted compound to corresponding cell plates. Incubate the plates at 37° C. for 20 min. Add IL6 solution at the final concentration 30 ng/mL to corresponding cell plates and continue to incubate at 37° C. for 30 min. Remove media and add 50 μL 1× lysis buffer to each well.
pSTAT3 detection: Perform the following steps sequentially: make acceptor mix (activation buffer/reaction buffer/acceptor beads); transfer 4 μL lysate from 96 well plates to 384 well-Proxiplates; add 5 μL acceptor mix to 384 proxiplate plate(s) and seal plates with aluminum seal; shake 1-2 minutes on plate shaker; incubate plate at RT for 2 hr with gentle shaking; make donor mix (donor beads in dilution buffer); add 2 μL donor mix to assay plates; seal plates with aluminum seal; shake 1-2 minutes on plate shaker; incubate at RT for 2 hr with gentle shaking; read plate with Envision; protocol AlphaScreen Surefire 384.

A further assay concerns the target JAK2 (Rattus norvegicus (Rat), UniProt Q62689). Nature of the assay: Rat PK/PD assay: rat whole blood ex vivo JAK2 activity (pSTAT5). Type of assay: in vivo. As to conditions: 30 mpk oral. On the procedure: as §1
The subject of assay [3] is paw swelling in Lewis rats. Nature of the assay: Rat collagen-induced arthritis (CIA) model. Type of assay: in vivo. On the procedure:
Rat Collagen-Induced Arthritis (CIA) Model
This protocol uses Lewis rats (weight 150-175 grams) from Charles River. On day 0, anesthetize rats with Isoflurane. On day 1, immunize intradermally with collagen emulsion in two sites on the lower lumbar region, above the base of the tail. Dose volume is a minimum of 0.4 mL per injection site. On day 8, anesthetize rats with Isoflurane and immunize intradermally with collagen emulsion in two sites on the lower lumbar region, above the base of the tail. Enroll rats into treatment groups on day 12, based on inflammation (redness and/or swelling) in their hind paws. Randomize animals for Treatment Phase based on ankle measurement values and body weight using block randomization allocation tool. Record ankle swelling on days 1, 8, and 11 and then three times per week following enrollment up to and including the day of necropsy. Dose compounds orally once a day starting on day 12 (after randomization) up to day 25. The compounds of Examples 6 and 7 were evaluated in the protocol essentially as described above.

JAK2, sequence (Q62689 whole entry): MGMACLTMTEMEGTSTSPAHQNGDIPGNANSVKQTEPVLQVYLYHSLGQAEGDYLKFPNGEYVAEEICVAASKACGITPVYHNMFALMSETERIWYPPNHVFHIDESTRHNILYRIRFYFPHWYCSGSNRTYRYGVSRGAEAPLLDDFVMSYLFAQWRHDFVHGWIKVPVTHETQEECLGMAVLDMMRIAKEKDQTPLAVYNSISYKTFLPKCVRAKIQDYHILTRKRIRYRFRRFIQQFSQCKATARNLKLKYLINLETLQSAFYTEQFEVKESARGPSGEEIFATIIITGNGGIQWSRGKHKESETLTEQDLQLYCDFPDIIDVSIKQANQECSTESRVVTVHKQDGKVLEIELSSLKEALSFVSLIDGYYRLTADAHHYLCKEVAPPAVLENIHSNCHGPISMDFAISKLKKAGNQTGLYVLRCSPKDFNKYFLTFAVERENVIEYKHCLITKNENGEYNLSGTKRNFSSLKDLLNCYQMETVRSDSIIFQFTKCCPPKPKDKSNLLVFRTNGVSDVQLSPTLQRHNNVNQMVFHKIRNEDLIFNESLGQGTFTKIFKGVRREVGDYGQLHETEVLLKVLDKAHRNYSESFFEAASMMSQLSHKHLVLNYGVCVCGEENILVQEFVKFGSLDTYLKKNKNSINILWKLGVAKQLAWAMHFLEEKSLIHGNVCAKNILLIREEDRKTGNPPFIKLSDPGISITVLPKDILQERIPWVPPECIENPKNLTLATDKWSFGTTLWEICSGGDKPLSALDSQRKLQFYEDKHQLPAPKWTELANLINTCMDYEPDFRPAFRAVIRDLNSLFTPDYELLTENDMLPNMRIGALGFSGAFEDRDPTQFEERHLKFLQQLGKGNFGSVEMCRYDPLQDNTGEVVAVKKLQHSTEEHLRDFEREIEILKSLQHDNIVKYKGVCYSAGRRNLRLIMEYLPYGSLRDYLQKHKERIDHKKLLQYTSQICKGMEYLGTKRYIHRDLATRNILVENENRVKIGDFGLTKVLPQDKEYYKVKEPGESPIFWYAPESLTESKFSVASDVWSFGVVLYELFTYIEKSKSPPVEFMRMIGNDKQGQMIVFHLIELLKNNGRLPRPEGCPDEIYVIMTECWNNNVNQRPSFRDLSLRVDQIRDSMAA
JAK1 (Rattus norvegicus, UniProt G3V9W2), sequence (G3V9W2 1-1153): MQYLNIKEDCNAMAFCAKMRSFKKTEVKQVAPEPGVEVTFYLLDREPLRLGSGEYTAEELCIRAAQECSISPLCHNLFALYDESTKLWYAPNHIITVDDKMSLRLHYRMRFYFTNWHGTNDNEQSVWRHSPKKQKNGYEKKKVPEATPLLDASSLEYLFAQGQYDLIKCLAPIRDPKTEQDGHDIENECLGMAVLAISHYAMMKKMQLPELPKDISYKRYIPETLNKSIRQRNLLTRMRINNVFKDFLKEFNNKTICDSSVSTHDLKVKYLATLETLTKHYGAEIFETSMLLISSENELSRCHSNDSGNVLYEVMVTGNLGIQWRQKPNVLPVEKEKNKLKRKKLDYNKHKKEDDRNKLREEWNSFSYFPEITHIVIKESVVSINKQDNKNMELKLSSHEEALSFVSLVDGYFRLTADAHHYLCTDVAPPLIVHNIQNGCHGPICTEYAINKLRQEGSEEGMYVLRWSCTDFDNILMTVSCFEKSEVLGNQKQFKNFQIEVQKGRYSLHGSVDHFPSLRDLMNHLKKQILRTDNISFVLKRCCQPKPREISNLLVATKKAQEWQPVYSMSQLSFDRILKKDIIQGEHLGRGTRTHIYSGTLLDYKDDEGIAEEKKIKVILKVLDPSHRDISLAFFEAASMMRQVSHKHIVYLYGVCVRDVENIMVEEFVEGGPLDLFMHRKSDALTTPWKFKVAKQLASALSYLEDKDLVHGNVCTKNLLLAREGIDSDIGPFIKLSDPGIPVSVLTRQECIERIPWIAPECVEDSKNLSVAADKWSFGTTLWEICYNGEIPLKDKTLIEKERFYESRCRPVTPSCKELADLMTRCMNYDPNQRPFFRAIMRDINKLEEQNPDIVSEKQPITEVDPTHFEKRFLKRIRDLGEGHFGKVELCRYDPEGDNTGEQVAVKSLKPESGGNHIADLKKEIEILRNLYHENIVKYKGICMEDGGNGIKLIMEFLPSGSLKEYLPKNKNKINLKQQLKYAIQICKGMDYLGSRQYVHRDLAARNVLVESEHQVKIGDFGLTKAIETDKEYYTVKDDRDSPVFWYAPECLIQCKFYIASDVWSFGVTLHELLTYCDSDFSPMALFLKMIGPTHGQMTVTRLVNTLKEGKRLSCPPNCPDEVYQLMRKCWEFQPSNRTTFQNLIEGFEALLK
JAK1 (Homo sapiens (Human), UniProt P23458), sequence (P23458 whole entry): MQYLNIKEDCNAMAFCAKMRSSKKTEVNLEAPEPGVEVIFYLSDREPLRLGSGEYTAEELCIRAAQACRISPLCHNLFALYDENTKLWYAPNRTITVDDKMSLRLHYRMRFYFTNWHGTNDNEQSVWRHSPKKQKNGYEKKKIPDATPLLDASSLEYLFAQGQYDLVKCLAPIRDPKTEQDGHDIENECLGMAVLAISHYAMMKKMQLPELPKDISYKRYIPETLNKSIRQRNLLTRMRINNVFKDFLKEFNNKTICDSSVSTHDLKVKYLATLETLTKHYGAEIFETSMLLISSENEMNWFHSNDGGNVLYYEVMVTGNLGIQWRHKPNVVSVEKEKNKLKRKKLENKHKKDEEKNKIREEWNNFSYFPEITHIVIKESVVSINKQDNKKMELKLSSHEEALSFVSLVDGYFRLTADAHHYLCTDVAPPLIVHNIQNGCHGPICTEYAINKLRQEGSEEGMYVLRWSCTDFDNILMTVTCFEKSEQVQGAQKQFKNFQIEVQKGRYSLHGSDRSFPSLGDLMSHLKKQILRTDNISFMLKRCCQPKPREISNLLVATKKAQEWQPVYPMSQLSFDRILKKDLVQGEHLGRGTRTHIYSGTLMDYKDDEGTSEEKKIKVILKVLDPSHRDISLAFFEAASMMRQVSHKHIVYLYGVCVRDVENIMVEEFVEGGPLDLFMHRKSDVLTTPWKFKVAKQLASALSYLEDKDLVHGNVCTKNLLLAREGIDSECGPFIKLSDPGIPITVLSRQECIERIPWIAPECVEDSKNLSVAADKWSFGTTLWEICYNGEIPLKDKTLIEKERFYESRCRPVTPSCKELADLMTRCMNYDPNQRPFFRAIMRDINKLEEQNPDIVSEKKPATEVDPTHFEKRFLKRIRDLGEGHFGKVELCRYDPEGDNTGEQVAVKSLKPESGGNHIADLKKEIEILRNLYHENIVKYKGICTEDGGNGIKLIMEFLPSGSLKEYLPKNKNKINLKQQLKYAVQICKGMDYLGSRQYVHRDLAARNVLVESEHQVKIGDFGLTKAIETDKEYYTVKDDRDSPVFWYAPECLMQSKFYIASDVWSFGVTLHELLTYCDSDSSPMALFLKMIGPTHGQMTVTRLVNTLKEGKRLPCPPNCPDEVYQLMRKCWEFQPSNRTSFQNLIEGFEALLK

As for `COc1cc(Nc2cc(O[C@H]3CC[C@@H](NC[C@@H](O)C(F)(F)F)CC3)cc3c2ncn3C)nn1C` [Example 6, (2R)-1,1,1-Trifluoro-3-{[cis-4-({4-[(5-methoxy-1-methyl-1H-pyrazol-3-yl)amino]-1-methyl-1H-benzimidazol-6-yl}oxy)cyclohexyl]amino}propan-2-ol], the inhibition (commonly the relative decrease from the control value, in per cent) at 30 mg/kg at JAK1 [1] (2 hr post dosing, read-out: JAK1 inhibition 2 hr post dosing) came out at 83.5%; on JAK1 [1] (7 hr post dosing, read-out: JAK1 inhibition 7 hr post dosing), 75.4%; at JAK2 (2 hr post dosing, read-out: JAK2 inhibition 2 hr post dosing), 17.7%; at JAK2 (7 hr post dosing, read-out: JAK2 inhibition 7 hr post dosing), 17.4%. On JAK1 [2], half-maximal inhibition (IC50) required 0.168 ± 0.09 nM. For the same compound, the “Rat paw swelling % inhibition at 3 mpk” value in assay [3] (3 mpk oral once a day day 12 to 25, naïve rat as 100% inhibition) is 12%. The “Rat paw swelling % inhibition at 10 mpk” value in assay [3] (10 mpk oral once a day day 12 to 25, naïve rat as 100% inhibition) turned out to be 47%. Besides, the “Rat paw swelling % inhibition at 30 mpk” value in assay [3] (30 mpk oral once a day day 12 to 25, naïve rat as 100% inhibition) stood at 79%.
